pIC50: −log10 of the molar value.
Legend:
[1] = tested on: MIA PaCa-2 (KRAS G12C) cells; experiment: Cellular pERK HTRF assay (KRAS_G12C pERK); type: cell-based, human; details: Homo sapiens, MIA PaCa-2, 4 hours incubation, read-out: G12C_pERK
How it was run: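 MIA PaCa-2 cells plated overnight, then exposed to compound for 4 h at 37 °C (G12C compounds). Phospho-ERK1/2 measured in lysates by HTRF (665/620 nm) after overnight antibody incubation; IC50 from percent inhibition versus log concentration.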

KRAS G12C = KRAS G12C (Homo sapiens, UniProt P01116, G12C); experiment: GDP-GTP exchange assay (KRAS_G12C exchange); type: biochemical; details: bodipy-GDP loaded KRAS G12C 2.5 nM, SOS1 150 nM, GppNHp; 2 hours pre-incubation, 2 hours reaction; read-out: G12C_exchange
Sequence of KRAS G12C (P01116 1-188 isoform P01116-2 G12C): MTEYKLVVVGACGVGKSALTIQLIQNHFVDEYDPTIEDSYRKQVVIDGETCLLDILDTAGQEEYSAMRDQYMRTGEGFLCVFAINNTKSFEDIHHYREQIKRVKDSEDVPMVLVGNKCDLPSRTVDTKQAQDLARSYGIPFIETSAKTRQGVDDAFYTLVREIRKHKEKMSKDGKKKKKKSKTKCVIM
How it was run: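 Fluorescence exchange of bodipy-GDP for GppNHp, SOS1-driven, read at 485/520 nm; IC50 from four-parameter variable-slope fit. Both mutants used 2.5 nM final labelled protein and a 2 h compound pre-incubation. G12C reaction had 500 uM GppNHp and 150 nM SOS1 for 2 h; G12D ran 4 h.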

Compound `C=CC(=O)N1CC[C@H](n2nnc3c(OC[C@@H]4CCCN4C)nc4c(Cl)c(-c5ccc(F)c6cccnc56)c(Cl)cc4c32)C[C@H]1CC#N` (single isomer, unassigned) [Example 276a] has a pIC50 [1] of no less than 7.00 and a pIC50 (KRAS G12C) of no less than 7.00.
In the case of `CC#CC(=O)N1CC[C@H](n2nnc3c(N4CC(N(C)C)C4)nc4c(Cl)c(-c5cccc6cccnc56)c(Cl)cc4c32)C[C@H]1CC#N` (single isomer, unassigned) [Example 277a], the pIC50 [1] was no less than 7.00 and the pIC50 (KRAS G12C) was no less than 7.00.
Compound `CC#CC(=O)N1CC[C@H](n2nnc3c(OC[C@@H]4CCCN4C)nc4c(Cl)c(-c5cccc6cccnc56)c(Cl)cc4c32)C[C@H]1CC#N` (single isomer, unassigned) [Example 279a] has a pIC50 [1] of no less than 7.00 and a pIC50 (KRAS G12C) of no less than 7.00.
`CC#CC(=O)N1CC[C@H](n2nnc3c(OC[C@@H]4CCCN4C)nc4c(Cl)c(-c5cc(F)cc6cccnc56)c(Cl)cc4c32)C[C@H]1CC#N` (single isomer, unassigned) [Example 280a] gave a pIC50 [1] of no less than 7.00 and a pIC50 (KRAS G12C) of no less than 7.00.
For `C=CC(=O)N1CC[C@H](n2nnc3c(N4CC(N(C)C)C4)nc4c(Cl)c(-c5cccc6cccnc56)c(Cl)cc4c32)C[C@H]1CC#N` (single isomer, unassigned) [Example 283a], the pIC50 [1] was no less than 7.00 and the pIC50 (KRAS G12C) was no less than 7.00.
In the case of `C=CC(=O)N1CC[C@H](n2nnc3c(N4CC(N(C)C)C4)nc4c(Cl)c(-c5cc(F)cc6cccnc56)c(Cl)cc4c32)C[C@H]1CC#N` (single isomer, unassigned) [Example 284a], the pIC50 [1] was no less than 7.00 and the pIC50 (KRAS G12C) was no less than 7.00.
For `C=CC(=O)N1CC[C@H](n2nnc3c(OC[C@@H]4CCCN4C)nc4c(Cl)c(-c5cccc6cccnc56)c(Cl)cc4c32)C[C@H]1CC#N` (single isomer, unassigned) [Example 288a], the pIC50 [1] was no less than 7.00 and the pIC50 (KRAS G12C) was no less than 7.00.
`C=CC(=O)N1CC[C@H](n2nnc3c(OC[C@@H]4CCCN4C)nc4c(Cl)c(-c5cc(F)cc6cccnc56)c(Cl)cc4c32)C[C@H]1CC#N` (single isomer, unassigned) [Example 289a] gave a pIC50 [1] of no less than 7.00 and a pIC50 (KRAS G12C) of no less than 7.00.
For `C=CC(=O)N1CCC(n2cnc3c(N4CC(N(C)C)C4)nc4c(F)c(-c5cc(O)cc6ccccc56)c(Cl)cc4c32)CC1` [Example 9, 1-(4-(8-chloro-4-(3-(dimethylamino)azetidin-1-yl)-6-fluoro-7-(3-hydroxy-naphthalen-1-yl)-1H-imidazo[4,5-c]quinolin-1-yl)piperidin-1-yl)prop-2-en-1-one], the pIC50 [1] was 6.00 to 7.00 and the pIC50 (KRAS G12C) was no less than 7.00.
With `C=CC(=O)N1CCC(n2c(=O)[nH]c3c(OC[C@@H]4CCCN4C)nc4c(F)c(-c5cc(O)cc6ccccc56)c(Cl)cc4c32)CC1` [Example 10, 1-(1-Acryloylpiperidin-4-yl)-8-chloro-6-fluoro-7-(3-hydroxynaphthalen-1-yl)-4-(((S)-1-methylpyrrolidin-2-yl)methoxy)-1,3-dihydro-2H-imidazo[4,5-c]quinolin-2-one] the pIC50 [1] was 6.00 to 7.00 and the pIC50 (KRAS G12C) was no less than 7.00.
`C=CC(=O)N1CCC(n2cnc3c(-c4cc(O)cc5ccccc45)nc4c(F)c(-c5cc(O)cc6ccccc56)c(Cl)cc4c32)CC1` [Example 11, 1-(4-(8-chloro-6-fluoro-4,7-bis(3-hydroxynaphthalen-1-yl)-1H-imidazo[4,5-c]quinolin-1-yl)piperidin-1-yl)prop-2-en-1-one] showed a pIC50 [1] of 6.00 to 7.00 and a pIC50 (KRAS G12C) of no less than 7.00.
`C=CC(=O)N1CCC(n2cnc3c(-c4c(O)cccc4F)nc4c(F)c(-c5c(O)cccc5F)c(Cl)cc4c32)CC1` [Example 12, 1-(4-(8-chloro-6-fluoro-4,7-bis(2-fluoro-6-hydroxyphenyl)-1H-imidazo[4,5-c]-quinolin-1-yl)piperidin-1-yl)prop-2-en-1-one] gave a pIC50 [1] of 5.30 to 6.00 and a pIC50 (KRAS G12C) of 6.00 to 7.00.
`C=CC(=O)N1CCC(n2cnc3cnc4c(F)c(-c5c(O)cccc5F)c(Cl)cc4c32)CC1` [Example 13, 1-(4-(8-Chloro-6-fluoro-7-(2-fluoro-6-hydroxyphenyl)-1H-imidazo[4,5-c]-quinolin-1-yl)piperidin-1-yl)prop-2-en-1-one] showed a pIC50 [1] of 5.30 to 6.00 and a pIC50 (KRAS G12C) of 6.00 to 7.00.
With `C=CC(=O)N1CC[C@H](n2cnc3c(N4CC(N(C)C)C4)nc4c(F)c(-c5cccc(C)c5C)c(Cl)cc4c32)C[C@H]1CC#N` [Example 16, 2-((2S,4S)-1-acryloyl-4-(8-chloro-4-(3-(dimethylamino)azetidin-1-yl)-7-(2,3-dimethylphenyl)-6-fluoro-1H-imidazo[4,5-c]quinolin-1-yl)piperidin-2-yl)acetonitrile] the pIC50 [1] was no less than 7.00 and the pIC50 (KRAS G12C) was no less than 7.00.
`C=CC(=O)N1CC[C@H](n2cnc3c(N4CC(N(C)C)C4)nc4c(F)c(-c5cccc(C#N)c5C)c(Cl)cc4c32)C[C@H]1CC#N` [Example 17, 3-(1-((2S,4S)-1-acryloyl-2-(cyanomethyl)piperidin-4-yl)-8-chloro-4-(3-(dimethylamino)azetidin-1-yl)-6-fluoro-1H-imidazo[4,5-c]quinolin-7-yl)-2-methylbenzonitrile] was tested, and the pIC50 [1] was no less than 7.00 and the pIC50 (KRAS G12C) was no less than 7.00.
Compound `C=CC(=O)N1CC[C@H](n2cnc3c(N4CC(N(C)C)C4)nc4c(F)c(-c5cccc(F)c5C)c(Cl)cc4c32)C[C@H]1CC#N` [Example 18, 2-((2S,4S)-1-acryloyl-4-(8-chloro-4-(3-(dimethylamino)azetidin-1-yl)-6-fluoro-7-(3-fluoro-2-methylphenyl)-1H-imidazo[4,5-c]quinolin-1-yl)piperidin-2-yl)acetonitrile] has a pIC50 [1] of no less than 7.00 and a pIC50 (KRAS G12C) of no less than 7.00.
With `C=CC(=O)N1CC[C@H](n2cnc3c(N4CC(N(C)C)C4)nc4c(F)c(-c5cccc(C)c5Cl)c(Cl)cc4c32)C[C@H]1CC#N` [Example 19, 2-((2S,4S)-1-acryloyl-4-(8-chloro-7-(2-chloro-3-methylphenyl)-4-(3-(dimethylamino)azetidin-1-yl)-6-fluoro-1H-imidazo[4,5-c]quinolin-1-yl)piperidin-2-yl)acetonitrile] the pIC50 [1] was no less than 7.00 and the pIC50 (KRAS G12C) was no less than 7.00.
Compound `C=CC(=O)N1CC[C@H](n2cnc3c(N4CC(N(C)C)C4)nc4c(F)c(-c5ccccc5C)c(Cl)cc4c32)C[C@H]1CC#N` [Example 20, 2-((2S,4S)-1-acryloyl-4-(8-chloro-4-(3-(dimethylamino)azetidin-1-yl)-6-fluoro-7-(o-tolyl)-1H-imidazo[4,5-c]quinolin-1-yl)piperidin-2-yl)acetonitrile] has a pIC50 [1] of no less than 7.00 and a pIC50 (KRAS G12C) of no less than 7.00.
`C=CC(=O)N1CC[C@H](n2cnc3c(N4CC(N(C)C)C4)nc4c(F)c(-c5cc(O)cc6ccccc56)c(Cl)cc4c32)C[C@H]1C(N)=O` [Example 21, (2S,4S)-1-acryloyl-4-(8-chloro-4-(3-(dimethylamino)azetidin-1-yl)-6-fluoro-7-(3-hydroxynaphthalen-1-yl)-1H-imidazo[4,5-c]quinolin-1-yl)piperidine-2-carboxamide] gave a pIC50 [1] of no less than 7.00 and a pIC50 (KRAS G12C) of no less than 7.00.
In the case of `C=CC(=O)N1CC[C@H](n2cnc3c(N4CC(N(C)C)C4)nc4c(F)c(-c5cc(O)cc6ccccc56)c(Cl)cc4c32)C[C@H]1C#N` [Example 22, (2S,4S)-1-acryloyl-4-(8-chloro-4-(3-(dimethylamino)azetidin-1-yl)-6-fluoro-7-(3-hydroxynaphthalen-1-yl)-1H-imidazo[4,5-c]quinolin-1-yl)piperidine-2-carbonitrile], the pIC50 [1] was no less than 7.00 and the pIC50 (KRAS G12C) was no less than 7.00.
Work on `C=CC(=O)N1CC(n2c(=O)[nH]c3c(=O)n(-c4c(C)ccnc4C(C)C)c4nc(-c5cc(O)cc6ccccc56)c(F)cc4c32)C1` [Example 26, 1-(1-acryloylazetidin-3-yl)-8-fluoro-7-(3-hydroxynaphthalen-1-yl)-5-(2-isopropyl-4-methylpyridin-3-yl)-3,5-dihydro-1H-imidazo[4,5-c][1,8]naphthyridine-2,4-dione] yielded a pIC50 [1] of 5.30 to 6.00 and a pIC50 (KRAS G12C) of no less than 7.00.
Compound `C=CC(=O)N1CC(n2c(=O)n(C[C@@H]3CCCN3C)c3c(=O)n(-c4c(C)ccnc4C(C)C)c4nc(-c5cc(O)cc6ccccc56)c(F)cc4c32)C1` [Example 27, (S)-1-(1-acryloylazetidin-3-yl)-8-fluoro-7-(3-hydroxynaphthalen-1-yl)-5-(2-isopropyl-4-methylpyridin-3-yl)-3-((1-methylpyrrolidin-2-yl)methyl)-3,5-dihydro-1H-imidazo[4,5-c][1,8]naphthyridine-2,4-dione] has a pIC50 [1] of 5.30 to 6.00 and a pIC50 (KRAS G12C) of 6.00 to 7.00.
In the case of `C=CC(=O)N1C[C@H](n2cnc3c(N4CC(N(C)C)C4)nc4c(F)c(-c5cc(O)cc6ccccc56)c(Cl)cc4c32)C[C@@H]1CC#N` [Example 32, 2-((2R,4R)-1-acryloyl-4-(8-chloro-4-(3-(dimethylamino)azetidin-1-yl)-6-fluoro-7-(3-hydroxynaphthalen-1-yl)-1H-imidazo[4,5-c]quinolin-1-yl)pyrrolidin-2-yl)acetonitrile], the pIC50 [1] was no less than 7.00 and the pIC50 (KRAS G12C) was no less than 7.00.
`C=CC(=O)N1CC[C@H](n2cnc3c(N4CC(N(C)C)C4)nc4c(F)c(-c5ccccc5)c(Cl)cc4c32)C[C@H]1CC#N` [Example 45, 2-((2S,4S)-1-acryloyl-4-(8-chloro-4-(3-(dimethylamino)azetidin-1-yl)-6-fluoro-7-phenyl-1H-imidazo[4,5-c]quinolin-1-yl)piperidin-2-yl)acetonitrile] gave a pIC50 [1] of no less than 7.00 and a pIC50 (KRAS G12C) of no less than 7.00.
Compound `C=CC(=O)N1CC[C@H](n2cnc3c(N4CC(N(C)C)C4)nc4c(F)c(-c5cccc6ccccc56)c(Cl)cc4c32)C[C@H]1CC#N` [Example 46, 2-((2S,4S)-1-acryloyl-4-(8-chloro-4-(3-(dimethylamino)azetidin-1-yl)-6-fluoro-7-(naphthalen-1-yl)-1H-imidazo[4,5-c]quinolin-1-yl)piperidin-2-yl)acetonitrile] has a pIC50 [1] of no less than 7.00 and a pIC50 (KRAS G12C) of no less than 7.00.
